In assay [1] the test system is parvalbumin (PV). In words: PV-immunohistochemistry in mPFC after maternal glyphosate exposure. It counts as in vivo, mouse. Particulars: juvenile offspring of maternal glyphosate exposure vs water treated group. The procedure:
PV-immunohistochemistry. Immunohistochemistry of PV was performed as reported previously (7,13,16,17). Mice were anesthetized with 5% isoflurane and sodium pentobarbital (50 mg/kg), and perfused transcardially with 10 mL of saline, followed by 30 mL of ice-cold 4% paraformaldehyde in 0.1M phosphate buffer (pH 7.4). Brains were removed from the skulls and post fixed overnight at 4° C. in the same fixative. For the immunohistochemical analysis, 50 μm-thick serial, coronal sections of brain tissue were cut in ice-cold 0.01M phosphate buffered saline (pH 7.4) using a vibrating blade microtome (VT1000s, Leica Microsystems, Tokyo, Japan). Mounted on gelatinized slides brain sections were washed by PBS for three times and then blocked in PBS containing 0.3% Triton X-100 (PBST) and 3% normal serum for 1 h at room temperature. The samples were then incubated for 24 h at 4° C. with […] polyclonal anti-parvalbumin (PV) antibody (1:100, abcam, ab11427) in PBST with 1% normal serum. After that the sections were washed three times in PBS and then incubated for 2 h in room temperature with Alexa Fluor 488 Polyclonal Antibody (1:1000, Invitrogen, A11094). […] The PV-immunofluorescent-positive cells in the inflalimbic (IL) and prelimbic (PrL) regions (0.05 mm^2) of mPFC was analyzed using a fluorescence microscope with a CCD camera (Olympus IX70, Tokyo, Japan) and the SCION IMAGE software package. […]

Assay [2] deals with parvalbumin (PV). Description: PV immunohistochemistry in mPFC, offspring after MIA. The class given is in vivo, mouse. The note with it: adult offspring of poly(I:C)-treated mice vs saline-treated group. On the procedure:
Immunohistochemistry. Immunohistochemistry of PV was performed as reported previously (37,39,59,60). Mice were anesthetized with 5% isoflurane and sodium pentobarbital (50 mg/kg), and perfused transcardially with 10 mL of physiological saline, followed by 40 mL of ice-cold 4% paraformaldehyde in 0.1M phosphate buffer (pH 7.4). Brains were removed from the skulls and post fixed overnight at 4° C. in the same fixative. For the immunohistochemical analysis, 50 μm-thick serial, coronal sections of brain tissue were cut in ice-cold 0.01M phosphate buffered saline (pH 7.5) using a vibrating blade microtome (VT1000s, Leica Microsystems, Tokyo, Japan). Free-floating sections were treated with 0.3% H2O2 in 50 mM Tris-HCl saline (TBS) for 30 min and were blocked in TBS containing 0.2% Triton X-100 (TBST) and 1.5% normal serum for 1 h at room temperature. […] The sections were imaged, and the staining intensity of PV (or GADO immunoreactivity in the inflalimbic (IL) and prelimbic (PrL) regions of mPFC was analyzed using a light micro-scope equipped with a CCD camera (Olympus IX70, Tokyo, Japan) and the SCION IMAGE software package. Images of sections within mPFC region were captured using a 100× objective with a Keyence BZ-X710 microscope (Keyence Corporation, Osaka, Japan).

Take `O=C(O)CNCP(=O)(O)O` [glyphosate]: in assay [1], the “PV-immunoreactivity in the prelimbic (PrL) of medial PFC” value was “significantly lower”. Consider “polyriboinosinic-polyribocytidilic acid [Poly(I:C)]”, for which the “PV-IR in the PrL of mPFC” value in assay [2] is “significantly lower”.
